Assay results: patent US11603377B2, “MTORC1 modulators and uses thereof” (Aeovian Pharmaceuticals, Inc., priority 2020, dated 2023)

Legend:
FKBP12 = FKBP12 (Homo sapiens (Human), UniProt P62942); test: SPR assay to determine binding affinity to FKBP12 (direct binding); details: immobilized biotinylated avi-FKBP12
mTORC2 = mTORC2 (Homo sapiens (Human), UniProt P42345+P62942); test: mTORC2 inhibition, AlphaLISA of Phospho-AKT (pAKT pS473) in PC3 cells; format: cell-based
[1] = target: FKBP51 / FRB ternary complex (Homo sapiens (Human), UniProt P42345+Q13451); test: SPR assay to characterize ternary complex formation with FKBP51 (FRB binding to rapalog-saturated FKBP51); details: FRB dilutions with 100 nM rapalog on immobilized FKBP51
Method in brief: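 SPR with biotinylated avi-FKBP51 on streptavidin chip (~200 RU); FRB (0.00011-20 μM, 3-fold series) injected with 100 nM rapalog, A-B-A mode keeping FKBP saturated with rapalog.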

[2] = target: FKBP12 / FRB ternary complex (Homo sapiens (Human), UniProt P42345+P62942); test: SPR assay to characterize ternary complex formation with FKBP12 (FRB binding to rapalog-saturated FKBP12); details: FRB dilutions with 100 nM rapalog on immobilized FKBP12
Method in brief: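 Biotinylated avi-FKBP12 immobilized (~100 RU) on streptavidin chip; A-B-A injections kept FKBP12 saturated with 100 nM rapalog while FRB (0.00011–20 μM, 3-fold, 12 points) was injected 120 s.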

mTORC1 = mTORC1 (Homo sapiens (Human), UniProt P42345+P62942); test: mTORC1 inhibition, AlphaLISA of Phospho-p70 S6 kinase (p70S6K pT389) in PC-3 cells; format: cell-based; details: inhibition of p70S6K pT389 levels
FKBP51 = FKBP51 (Homo sapiens (Human), UniProt Q13451); test: SPR assay to determine binding affinity to FKBP51 (direct binding); details: immobilized biotinylated avi-FKBP51
FKBP51, sequence (Q13451 whole entry): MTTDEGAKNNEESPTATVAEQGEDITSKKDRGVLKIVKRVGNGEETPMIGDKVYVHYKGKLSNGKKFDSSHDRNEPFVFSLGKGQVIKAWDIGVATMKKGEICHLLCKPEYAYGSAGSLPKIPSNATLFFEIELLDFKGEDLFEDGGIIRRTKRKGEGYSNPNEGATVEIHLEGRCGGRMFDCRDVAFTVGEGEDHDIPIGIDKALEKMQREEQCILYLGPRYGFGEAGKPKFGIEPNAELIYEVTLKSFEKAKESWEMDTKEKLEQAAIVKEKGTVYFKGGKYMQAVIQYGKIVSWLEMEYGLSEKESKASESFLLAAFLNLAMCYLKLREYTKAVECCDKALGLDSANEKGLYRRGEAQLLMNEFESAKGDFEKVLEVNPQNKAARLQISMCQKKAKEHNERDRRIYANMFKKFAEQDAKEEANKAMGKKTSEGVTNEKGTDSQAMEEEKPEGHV
Method in brief: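 Biotinylated avi-FKBP51 captured on streptavidin chip to about 2000 RU. Compounds injected at 0.5-1000 nM (8 points, 3-fold) for 120 s contact and 3600 s dissociation in 50 mM HEPES pH 7.5, 150 mM NaCl, 2 mM MgCl2, 1 mM DTT, 0.05% Tween-20, 1% DMSO.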

FKBP12, sequence (P62942 whole entry): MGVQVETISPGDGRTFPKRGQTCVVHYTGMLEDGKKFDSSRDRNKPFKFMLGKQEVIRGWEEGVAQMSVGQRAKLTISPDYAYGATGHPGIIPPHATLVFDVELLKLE

Structure (SMILES)	Kd (FKBP12) [µM]	mTORC2 % inhibition at 1 uM (mTORC2)	Kd [1] [µM]	Kd [2] [µM]	IC50 (mTORC1) [µM]	Kd (FKBP51) [µM]
COC1CC(CC(C)C2CC(=O)C(C)C=C(C)C(O)C(OC)C(=O)C(C)CC(C)C=CC=CC=C(C)C(OCC3CCC3)CC3CCC(C)C(O)(O3)C(=O)C(=O)N3CCCCC3C(=O)O2)CCC1OCCO (stereo not drawn) [Compound 45]	> 0.001	B (B>20% and less than 40% inhibition at 1 uM)	< 0.3	< 0.3	> 0.0008	> 0.1
COC1CC(CC(C)C2CC(=O)C(C)C=C(C)C(O)C(OC)C(=O)C(C)CC(C)C=CC=CC=C(C)C(OC3CC3)CC3CCC(C)C(O)(O3)C(=O)C(=O)N3CCCCC3C(=O)O2)CCC1OCCO (stereo not drawn) [Compound 46]	> 0.001	B (B>20% and less than 40% inhibition at 1 uM)	0.3 to 0.8	0.3 to 0.8	0.0001 to 0.0008	> 0.1
COC1CC(CC(C)C2CC(=O)C(C)C=C(C)C(O)C(OC)C(=O)C(C)CC(C)C=CC=CC=C(C)C(OC3CC3)CC3CCC(C)C(O)(O3)C(=O)C(=O)N3CCCCC3C(=O)O2)CCC1OCCO (stereo not drawn) [Compound 47]	> 0.001	B (B>20% and less than 40% inhibition at 1 uM)	> 0.8	< 0.3	> 0.0008	> 0.1
CCOC(=O)COC1CCC(CC(C)C2CC(=O)C(C)C=C(C)C(O)C(OC)C(=O)C(C)CC(C)C=CC=CC=C(C)C(OC3CC3)CC3CCC(C)C(O)(O3)C(=O)C(=O)N3CCCCC3C(=O)O2)CC1OC (stereo not drawn) [Compound 48]	> 0.001	A (A ≤20% inhibition at 1 micro Molar (uM))	> 0.8	0.3 to 0.8	> 0.0008	> 0.1
CCOC(=O)COC1CCC(CC(C)C2CC(=O)C(C)C=C(C)C(O)C(OC)C(=O)C(C)CC(C)C=CC=CC=C(C)C(OCC3CCC3)CC3CCC(C)C(O)(O3)C(=O)C(=O)N3CCCCC3C(=O)O2)CC1OC (stereo not drawn) [Compound 49]	< 0.0003	B (B>20% and less than 40% inhibition at 1 uM)	> 0.8	0.3 to 0.8	> 0.0008	> 0.1
CCOC(=O)COC1CCC(CC(C)C2CC(=O)C(C)C=C(C)C(O)C(OC)C(=O)C(C)CC(C)C=CC=CC=C(C)C(OCC3CC3)CC3CCC(C)C(O)(O3)C(=O)C(=O)N3CCCCC3C(=O)O2)CC1OC (stereo not drawn) [Compound 50]	> 0.001	B (B>20% and less than 40% inhibition at 1 uM)	> 0.8	0.3 to 0.8	> 0.0008	> 0.1
CCOC(=O)COC1CCC(CC(C)C2CC(=O)C(C)C=C(C)C(O)C(OC)C(=O)C(C)CC(C)C=CC=CC=C(C)C(OCC3CC3)CC3CCC(C)C(O)(O3)C(=O)C(=O)N3CCCCC3C(=O)O2)CC1OC (stereo not drawn) [Compound 51]	> 0.001	A (A ≤20% inhibition at 1 micro Molar (uM))	> 0.8	0.3 to 0.8	> 0.0008	> 0.1
COC1CC(CC(C)C2CC(=O)C(C)C=C(C)C(O)C(OC)C(=O)C(C)CC(C)C=CC=CC=C(C)C(OC3CC3)CC3CCC(C)C(O)(O3)C(=O)C(=O)N3CCCCC3C(=O)O2)CCC1OCCCO (stereo not drawn) [Compound 52]	0.0003 to 0.001	B (B>20% and less than 40% inhibition at 1 uM)	> 0.8	< 0.3	0.0001 to 0.0008	> 0.1
COC1CC(CC(C)C2CC(=O)C(C)C=C(C)C(O)C(OC)C(=O)C(C)CC(C)C=CC=CC=C(C)C(OC3CC3)CC3CCC(C)C(O)(O3)C(=O)C(=O)N3CCCCC3C(=O)O2)CCC1OCCCO (stereo not drawn) [Compound 53]	0.0003 to 0.001	C (C≥40% and less than 60% inhibition at 1 uM)	> 0.8	< 0.3	0.0001 to 0.0008	> 0.1
COC1CC(CC(C)C2CC(=O)C(C)C=C(C)C(O)C(OC)C(=O)C(C)CC(C)C=CC=CC=C(C)C(OCC3CC3)CC3CCC(C)C(O)(O3)C(=O)C(=O)N3CCCCC3C(=O)O2)CCC1OCCO (stereo not drawn) [Compound 54]	> 0.001	B (B>20% and less than 40% inhibition at 1 uM)	> 0.8	< 0.3	0.0001 to 0.0008	> 0.1
CO[C@@H]1C[C@H](C[C@@H](C)[C@@H]2CC(=O)[C@H](C)/C=C(\C)[C@H](O)[C@@H](OC)C(=O)[C@H](C)C[C@H](C)/C=C/C=C/C=C(\C)[C@@H](OCCC3COC3)C[C@@H]3CC[C@@H](C)[C@@](O)(O3)C(=O)C(=O)N3CCCC[C@H]3C(=O)O2)CC[C@H]1O [Compound 55]	< 0.0003	B (B>20% and less than 40% inhibition at 1 uM)	> 0.8	0.3 to 0.8	0.0001 to 0.0008	> 0.1
CCOC(=O)COC1CCC(CC(C)C2CC(=O)C(C)C=C(C)C(O)C(OC)C(=O)C(C)CC(C)C=CC=CC=C(C)C(OCCOC)CC3CCC(C)C(O)(O3)C(=O)C(=O)N3CCCCC3C(=O)O2)CC1OC (stereo not drawn) [Compound 56]	< 0.0003	C (C≥40% and less than 60% inhibition at 1 uM)	> 0.8	0.3 to 0.8	0.0001 to 0.0008	> 0.1
COCCOC1CC2CCC(C)C(O)(O2)C(=O)C(=O)N2CCCCC2C(=O)OC(C(C)CC2CCC(OCC(=O)O)C(OC)C2)CC(=O)C(C)C=C(C)C(O)C(OC)C(=O)C(C)CC(C)C=CC=CC=C1C (stereo not drawn) [Compound 57]	> 0.001	B (B>20% and less than 40% inhibition at 1 uM)	> 0.8	0.3 to 0.8	> 0.0008	0.01 to 0.1
COC1C[C@H]2CC[C@H](C)[C@](O)(O2)C(=O)C(=O)N(C)C(C)C(=O)OC([C@H](C)C[C@@H]2CC[C@@H](OCCCS(C)(=O)=O)[C@H](OC)C2)CC(=O)C(C)/C=C(\C)C(O)C(OC)C(=O)C(C)CC/C=C/C=C/C=C/1C (stereo partly drawn) [Compound 59]	< 0.0003	D (D≥60% inhibition at 1 uM)	0.3 to 0.8	< 0.3	< 0.0001	0.01 to 0.1
CO[C@@H]1C[C@H](C[C@@H](C)[C@@H]2CC(=O)[C@H](C)/C=C(\C)[C@@H](O)[C@@H](OC)C(=O)[C@H](C)C[C@H](C)/C=C/C=C/C=C(\C)[C@@H](OCC3CC3)C[C@@H]3CC[C@@H](C)[C@@](O)(O3)C(=O)C(=O)N3CCCC[C@H]3C(=O)O2)CC[C@H]1OCCCS(C)(=O)=O [Compound 60]	> 0.001	B (B>20% and less than 40% inhibition at 1 uM)	> 0.8	< 0.3	0.0001 to 0.0008	> 0.1
COCCO[C@H]1C[C@@H]2CC[C@@H](C)[C@@](O)(O2)C(=O)C(=O)N2CCCC[C@H]2C(=O)O[C@H]([C@H](C)C[C@@H]2CC[C@@H](OCCCS(C)(=O)=O)[C@H](OC)C2)CC(=O)[C@H](C)/C=C(\C)[C@@H](O)[C@@H](OC)C(=O)[C@H](C)C[C@H](C)/C=C/C=C/C=C/1C [Compound 61]	< 0.0003	B (B>20% and less than 40% inhibition at 1 uM)	> 0.8	< 0.3	< 0.0001	> 0.1
CO[C@@H]1C[C@H](C[C@@H](C)[C@@H]2CC(=O)[C@H](C)/C=C(\C)[C@@H](O)[C@@H](OC)C(=O)[C@H](C)C[C@H](C)/C=C/C=C/C=C(\C)[C@@H](OCC3CCC3)C[C@@H]3CC[C@@H](C)[C@@](O)(O3)C(=O)C(=O)N3CCCC[C@H]3C(=O)O2)CC[C@H]1OCCCS(C)(=O)=O [Compound 62]	> 0.001	C (C≥40% and less than 60% inhibition at 1 uM)	> 0.8	< 0.3	> 0.0008	> 0.1
CO[C@@H]1C[C@H](C[C@@H](C)[C@@H]2CC(=O)[C@H](C)/C=C(\C)[C@@H](O)[C@@H](OC)C(=O)[C@H](C)C[C@H](C)/C=C/C=C/C=C(\C)[C@@H](OC3CC3)C[C@@H]3CC[C@@H](C)[C@@](O)(O3)C(=O)C(=O)N3CCCC[C@H]3C(=O)O2)CC[C@H]1OCCCS(C)(=O)=O [Compound 64]	0.0003 to 0.001	C (C≥40% and less than 60% inhibition at 1 uM)	< 0.3	< 0.3	0.0001 to 0.0008	> 0.1
COC1C(=O)C(C)CC/C=C/C=C/C=C(\C)C(CCO)C[C@H]2CC[C@H](C)[C@](O)(O2)C(=O)C(=O)N(C)C(C)C(=O)OC([C@H](C)C[C@@H]2CC[C@@H](OCCCS(C)(=O)=O)[C@H](OC)C2)CC(=O)C(C)/C=C(\C)C1O (stereo partly drawn) [Compound 67]	< 0.0003	B (B>20% and less than 40% inhibition at 1 uM)	> 0.8	0.3 to 0.8	0.0001 to 0.0008	0.01 to 0.1
CO[C@@H]1C[C@H](C[C@@H](C)[C@@H]2CC(=O)[C@H](C)/C=C(\C)[C@@H](O)[C@@H](OC)C(=O)[C@H](C)C[C@H](C)/C=C/C=C/C=C(\C)[C@@H](OCCCO)C[C@@H]3CC[C@@H](C)[C@@](O)(O3)C(=O)C(=O)N3CCCC[C@H]3C(=O)O2)CC[C@H]1OCCCS(C)(=O)=O [Compound 68]	< 0.0003	C (C≥40% and less than 60% inhibition at 1 uM)	> 0.8	< 0.3	< 0.0001	0.01 to 0.1
